Measured values as given in US9993462B2, “Hydantoin derivative-containing pharmaceutical composition” (Chugai Seiyaku Kabushiki Kaisha, priority 2014, dated 2018).

Tested on: TPTX rat
Experiment: Calcemic action in the TPTX rat model
Type: in vivo
Settings: TPTX rats, 30 mg/kg oral
Description: Four-week old female Crl:CD(SD) rats were obtained from Charles River Japan (Atsugi Breeding Center), and were acclimated to standard laboratory conditions of 20-26° C. and 35-75% humidity for one week. The rats were given tap water and were fed ad libitum with standard rodent chow (CE-2) (CLEA Japan, Inc.) containing 1.1% calcium, 1.0% phosphoric acid, and 250 IU/100 g of vitamin D3.
TPTX was performed on five-week old rats. Some of the individuals were subjected to sham operation (Sham). Individuals whose serum Ca concentration was less than 8 mg/dL on four days after the operation were selected for use as TPTX rats. On five days after the operation, the rats were assigned to eight TPTX groups and one Sham group (n=5, each group) based on their body weight and serum Ca concentration measured on four days after the operation. The solvent alone was orally administered to the Sham group and the TPTX-Vehicle group at a volume of 10 mL/kg. Each test article was orally administered individually to each TPTX test article group by dissolving it in a solvent at a dose of 30 mg/10 mL/kg. The solvent composition was 10% dimethylsulfoxide (Wako Pure Chemical Industries, Ltd.), 10% Cremophor EL (Sigma-Aldrich Japan LLC), 20% hydroxypropyl-β-cyclodextrin (Nihon Shokuhin Kako Co., Ltd.), glycine (Wako Pure Chemical Industries, Ltd.); and the pH was adjusted to 10. Immediately before administration of each sample, Pre-blood collection was performed, and blood collection was carried out at 2, 6, 10, and 24 hours after administration to measure the serum Ca concentration. Each blood collection was carried out from the jugular vein under isoflurane inhalation anesthesia.
Serum Ca measurement: Serum obtained by centrifugation from the collected blood was measured by using an automatic analyzer TBA-120FR (Toshiba Medical Systems Corporation).
For statistical analysis of the animal studies, data are shown as mean±standard error (SE). Statistical analysis were performed by unpaired test of the SAS Preclinical Package (Ver. 5.00.010720, SAS Institute Japan, Tokyo, Japan).

In the case of Cc1cc(N2C(=O)NC(=O)C2(C)C)cc(C)c1CCS(=O)(=O)N1CCC2(CC1)N=C(c1ccc(OC(F)(F)F)cc1)NC2=O [Compound 7, 1-(3,5-dimethyl-4-(2-((4-oxo-2-(4-(trifluoromethoxy)phenyl)-1,3,8-triazaspiro[4.5]deca-1-en-8-yl)sulfonyl)ethyl)phenyl)-5,5-dimethylimidazolidine-2,4-dione], the “achievement of the therapeutic target range of serum Ca concentration of 7.6 to 8.8 mg/dL” value is reported as “achieved the therapeutic target range” and the “change of serum Ca concentration from the Pre-value (in words)” value (up to 24 hours after administration) is reported as “large positive changes from the Pre-value”.
